Drawing on US20240300944A1, “NOVEL UREA DERIVATIVE COMPOUND AS RON INHIBITOR” (LG CHEM, LTD., priority 2021, published 2024), this text covers IC50 for 15 compounds.

For orientation: IC50 means the point on the concentration scale where inhibition reaches its midpoint. Low values mean greater potency, high ones weaker potency.

A value given as a limit tells only on which side of the number the result lay.

The target in one assay is cMET (Homo sapiens, UniProt P08581). Kind of assay: Inhibitory activity against MET (cMET), TR-FRET kinase assay. In kind it is biochemical. The note with it: cMET enzyme. On the procedure:
In addition, in order to measure the enzyme activity inhibition for cMET, the evaluation was performed in the same manner as the enzyme activity inhibition measurement experiment for the RON.
Specifically, the compound was prepared to a concentration of 1 mM with 100% DMSO and was diluted 10 times in a stepwise manner through 3-fold dilution. 2 ul of the compound diluted in a stepwise manner was added to a 96-well-plate containing 48 ul of a 1× kinase reaction buffer (50 mM HEPES (pH 7.4), 0.05% BSA, 0.005% Tween-20, 1 mM DTT, 0.5 mM MnCl2, 20 mM MgCl2).
The cMET protein was diluted to a concentration of 263 nM with a cMET storage buffer (50 mM Tris-HCl (pH 7.5), 150 mM NaCl, 0.05% Brij35, 1 mM DTT, 10% Glycerol), and then diluted again to a concentration of 2 nM with a 1× kinase reaction buffer. As a substrate cocktail, a MET-specific substrate mixture (5 uM TK peptide, […]) at a concentration 2 times the final reaction concentration.
Thereafter, a 384-well-plate was prepared, and 2.5 μl of each of the diluted compounds of Examples was added to a corresponding well of experimental group wells, and 2.5 μl of a 4% DMSO solution was dispensed into high control wells and low control wells.
(§1) Thereafter, 2.5 μL of 2 nM cMET was dispensed into the high control wells and the experimental group wells, and 2.5 μL of a 1× kinase reaction buffer was added to the low control wells, and the […] and the reaction buffer were centrifuged at room temperature for 40 seconds at 1000 RPM, and then incubated at room temperature for 20 to 30 minutes. Then, 5 μL of a substrate cocktail (2×) was dispensed into all wells, centrifuged at room temperature for 40 seconds at 1000 RPM, and then incubated at room temperature for 60 minutes. Thereafter, 5 μL of 90 mM EDTA was added to all wells to terminate the reaction, and then incubated again at room temperature for 5 minutes. Thereafter, 5 μL of a 4× phosphotyrosine antibody (Perkin Elmer) containing europium was added to all wells, and then incubated at room temperature for 60 minutes. After the incubation, the 384-well-plate was read with a Vison plate reader. At this time, the excitation wavelength was 340 nm, and the emission wavelength was 620 nm and 665 nm. The IC50 value of the compound of each Example was derived using the GraphPd Prism7 program.
In general terms: TR-FRET usually uses a lanthanide donor and a delayed reading to cut background.

For a further assay, the target named is RON (Homo sapiens, UniProt Q04912). Kind of assay: Inhibitory activity against RON, TR-FRET kinase assay. In kind it is biochemical. Conditions: RON enzyme. As for the experimental part: In order to measure the inhibitory activity of each of the compounds of Examples against RON, the IC50 of each of the compounds was measured using a Time-Resolved Fluorescence Energy Transfer Chemistry (TR-FRET).
Specifically, the compound was prepared to a concentration of 1 mM with 100% DMSO and was diluted 10 times in a stepwise manner through 3-fold dilution. 2 ul of the compound diluted in a stepwise manner was added to a 96-well-plate containing 48 ul of a 1× kinase reaction buffer (50 mM HEPES (pH 7.4), 0.01% Tween-20, 5 mM DTT, 0.5 mM Na3VO4, 2 mM EGTA, 10 mM MgCl2).
The RON protein was diluted to a concentration of 49.3 nM with an RON storage buffer (50 mM Tris-HCl (pH 7.5), 150 mM NaCl, 0.5 mM EDTA, 0.02% Triton X-100), and then diluted again to a concentration of 0.4 nM with a 1× kinase reaction buffer. As a substrate cocktail, a RON-specific substrate mixture (40 uM ULight-labeled Poly GT, 100 nM ATP) at a concentration 2 times the final reaction concentration.
Thereafter, a 384-well-plate was prepared, and 2.5 ul of each of the diluted compounds of Examples was added to a corresponding well of experimental group wells, and 2.5 ul of a 4% DMSO solution was dispensed into high control wells and low control wells.
as §1, with “of 0.4” for “of 2”, “nM RON” for “nM cMET”, “of 30” for “of 90”

Chain of RON (Q04912 25-1400, species assumed): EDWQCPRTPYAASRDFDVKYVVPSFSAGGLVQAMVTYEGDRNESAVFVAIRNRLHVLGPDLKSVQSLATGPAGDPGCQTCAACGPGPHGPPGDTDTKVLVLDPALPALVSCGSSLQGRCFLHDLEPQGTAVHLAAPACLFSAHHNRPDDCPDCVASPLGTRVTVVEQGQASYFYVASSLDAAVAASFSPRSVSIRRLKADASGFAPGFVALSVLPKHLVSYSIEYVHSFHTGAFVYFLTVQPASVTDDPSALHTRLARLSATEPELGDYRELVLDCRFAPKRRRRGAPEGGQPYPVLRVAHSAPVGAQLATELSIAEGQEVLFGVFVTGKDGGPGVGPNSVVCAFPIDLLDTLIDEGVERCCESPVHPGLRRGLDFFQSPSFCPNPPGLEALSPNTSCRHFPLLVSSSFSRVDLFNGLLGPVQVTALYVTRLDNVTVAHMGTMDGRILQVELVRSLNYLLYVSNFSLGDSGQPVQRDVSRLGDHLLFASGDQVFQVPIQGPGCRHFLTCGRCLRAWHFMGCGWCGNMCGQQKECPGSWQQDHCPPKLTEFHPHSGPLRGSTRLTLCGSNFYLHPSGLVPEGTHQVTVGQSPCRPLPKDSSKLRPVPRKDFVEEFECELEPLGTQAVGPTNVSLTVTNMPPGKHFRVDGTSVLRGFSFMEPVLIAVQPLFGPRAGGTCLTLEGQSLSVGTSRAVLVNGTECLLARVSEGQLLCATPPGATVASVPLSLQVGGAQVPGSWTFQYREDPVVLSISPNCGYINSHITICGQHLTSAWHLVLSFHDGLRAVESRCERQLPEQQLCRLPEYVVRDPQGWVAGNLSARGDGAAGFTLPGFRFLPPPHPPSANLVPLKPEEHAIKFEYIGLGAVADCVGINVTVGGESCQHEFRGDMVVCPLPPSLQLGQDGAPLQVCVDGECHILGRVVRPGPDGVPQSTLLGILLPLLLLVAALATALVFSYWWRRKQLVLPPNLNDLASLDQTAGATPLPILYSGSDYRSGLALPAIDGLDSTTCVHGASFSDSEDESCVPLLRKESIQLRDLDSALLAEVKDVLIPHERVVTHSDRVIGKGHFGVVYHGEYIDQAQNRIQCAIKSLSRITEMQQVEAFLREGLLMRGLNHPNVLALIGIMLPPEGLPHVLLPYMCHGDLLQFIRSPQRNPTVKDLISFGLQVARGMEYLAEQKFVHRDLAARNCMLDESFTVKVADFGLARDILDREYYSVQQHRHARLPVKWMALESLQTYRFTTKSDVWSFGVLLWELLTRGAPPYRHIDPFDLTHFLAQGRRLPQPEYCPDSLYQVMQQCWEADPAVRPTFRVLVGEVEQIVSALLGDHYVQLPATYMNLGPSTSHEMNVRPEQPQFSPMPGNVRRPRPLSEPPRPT
Chain of cMET (P08581 25-1390): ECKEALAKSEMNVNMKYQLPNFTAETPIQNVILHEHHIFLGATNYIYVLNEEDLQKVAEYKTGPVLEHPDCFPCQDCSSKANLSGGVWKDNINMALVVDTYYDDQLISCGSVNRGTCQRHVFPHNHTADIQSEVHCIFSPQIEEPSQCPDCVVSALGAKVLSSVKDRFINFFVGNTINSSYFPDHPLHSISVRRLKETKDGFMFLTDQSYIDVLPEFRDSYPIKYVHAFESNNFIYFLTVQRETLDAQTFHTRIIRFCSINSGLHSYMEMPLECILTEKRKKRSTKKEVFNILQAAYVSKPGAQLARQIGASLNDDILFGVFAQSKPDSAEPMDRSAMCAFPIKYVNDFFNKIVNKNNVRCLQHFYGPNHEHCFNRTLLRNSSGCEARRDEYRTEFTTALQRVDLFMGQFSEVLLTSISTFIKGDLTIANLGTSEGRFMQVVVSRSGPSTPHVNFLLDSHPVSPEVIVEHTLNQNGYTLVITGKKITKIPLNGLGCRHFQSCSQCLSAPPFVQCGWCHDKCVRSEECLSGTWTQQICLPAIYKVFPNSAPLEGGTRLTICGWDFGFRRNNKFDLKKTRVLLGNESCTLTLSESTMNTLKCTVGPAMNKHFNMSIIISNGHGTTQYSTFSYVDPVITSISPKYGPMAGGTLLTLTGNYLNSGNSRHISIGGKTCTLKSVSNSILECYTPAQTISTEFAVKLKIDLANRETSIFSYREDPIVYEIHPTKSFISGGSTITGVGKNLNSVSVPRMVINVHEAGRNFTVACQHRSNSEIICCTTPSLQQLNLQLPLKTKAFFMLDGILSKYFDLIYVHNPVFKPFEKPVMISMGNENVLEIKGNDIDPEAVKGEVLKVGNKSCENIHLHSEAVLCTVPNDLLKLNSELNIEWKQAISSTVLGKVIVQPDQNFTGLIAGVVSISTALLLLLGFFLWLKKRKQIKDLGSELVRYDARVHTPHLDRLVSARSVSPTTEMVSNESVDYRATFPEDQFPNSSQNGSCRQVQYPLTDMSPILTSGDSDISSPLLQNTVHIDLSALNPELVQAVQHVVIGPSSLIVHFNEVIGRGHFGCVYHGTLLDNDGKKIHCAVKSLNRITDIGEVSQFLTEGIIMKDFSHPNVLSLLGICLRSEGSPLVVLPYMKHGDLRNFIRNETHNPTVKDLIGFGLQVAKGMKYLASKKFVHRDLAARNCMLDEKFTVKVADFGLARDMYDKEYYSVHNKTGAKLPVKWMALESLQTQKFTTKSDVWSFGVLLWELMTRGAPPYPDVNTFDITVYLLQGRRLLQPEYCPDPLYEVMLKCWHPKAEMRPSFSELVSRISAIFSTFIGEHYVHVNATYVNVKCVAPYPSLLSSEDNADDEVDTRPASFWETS

For the compound `CC(C)n1c(=O)[nH]c2nccc(Oc3ccc(NC(=O)c4cnn(C5CCCCC5)c4C(F)(F)F)cc3F)c21` [Example 28, 1-cyclohexyl-N-(3-fluoro-4-((1-isopropyl-2-oxo-2,3-dihydro-1H-imidazo[4,5-b]pyridine-7-yl)oxy)phenyl)-5-(trifluoromethyl)-1H-pyrazole-4-carboxamide], the IC50 against cMET is 500 to 5000 nM; against RON it was less than 50 nM.
Consider `CC(C)n1c(=O)[nH]c2nccc(Oc3ccc(NC(=O)c4cnn(C5CCOCC5)c4C(F)(F)F)cc3F)c21` [Example 29, N-(3-fluoro-4-((1-isopropyl-2-oxo-2,3-dihydro-1H-imidazo[4,5-b]pyridine-7-yl)oxy)phenyl)-1-(tetrahydro-2H-pyran-4-yl)-5-(trifluoromethyl)-1H-pyrazole-4-carboxamide], for which the concentration for half-maximal inhibition (IC50) against cMET and against RON was 50 to 500 nM in each case.
As for `CC(C)n1c(=O)[nH]c2nccc(Oc3ccc(NC(=O)c4cnn(C(C)(C)C)c4C(F)(F)F)cc3F)c21` [Example 30, 1-(tert-butyl)-N-(3-fluoro-4-((1-isopropyl-2-oxo-2,3-dihydro-1H-imidazo[4,5-b]pyridine-7-yl)oxy)phenyl)-5-(trifluoromethyl)-1H-pyrazole-4-carboxamide], the values for the IC50 at cMET and on RON were 500 to 5000 nM and 50 to 500 nM, respectively.
The matching figures for `CC(C)n1c(=O)[nH]c2nccc(Oc3ccc(NC(=O)c4cnn(C5CCCCCC5)c4C(F)(F)F)cc3F)c21` [Example 31, 1-cycloheptyl-N-(3-fluoro-4-((1-isopropyl-2-oxo-2,3-dihydro-1H-imidazo[4,5-b]pyridine-7-yl)oxy)phenyl)-5-(trifluoromethyl)-1H-pyrazole-4-carboxamide]: 500 to 5000 nM and less than 50 nM.
For the compound `CC(C)n1c(=O)[nH]c2nccc(Oc3ccc(NC(=O)Cc4cnn(-c5ccccc5)c4C(F)(F)F)cc3F)c21` [Example 32, N-(3-fluoro-4-((1-isopropyl-2-oxo-2,3-dihydro-1H-imidazo[4,5-b]pyridine-7-yl)oxy)phenyl)-2-(1-phenyl-5-(trifluoromethyl)-1H-pyrazol-4-yl)acetamide], the IC50 on cMET lay in the range of 500 to 5000 nM; on RON it was 50 to 500 nM.
For the compound `CC(C)n1c(=O)[nH]c2nccc(Oc3ccc(NC(=O)c4cnn(C5CCCN(C)C5)c4C(F)(F)F)cc3F)c21` (stereo not drawn) [Example 33, N-(3-fluoro-4-((1-isopropyl-2-oxo-2,3-dihydro-1H-imidazo[4,5-b]pyridine-7-yl)oxy)phenyl)-1-(1-methylpiperidine-3-yl)-5-(trifluoromethyl)-1H-pyrazole-4-carboxamide], the IC50 against cMET fell in the range of 500 to 5000 nM; against RON it was 50 to 500 nM.
In the same order, the values of `CC(C)n1c(=O)[nH]c2nccc(Oc3ccc(NC(=O)c4cnn(-c5ccccc5F)c4C(F)(F)F)cc3F)c21` [Example 34, N-(3-fluoro-4-((1-isopropyl-2-oxo-2,3-dihydro-1H-imidazo[4,5-b]pyridine-7-yl)oxy)phenyl)-1-(2-fluorophenyl)-5-(trifluoromethyl)-1H-pyrazole-4-carboxamide] are 500 to 5000 nM and less than 50 nM.
The matching figures for `CC(C)n1c(=O)[nH]c2nccc(Oc3ccc(NC(=O)c4cnn(-c5ccccc5Cl)c4C(F)(F)F)cc3F)c21` [Example 35, 1-(2chlorophenyl)-N-(3-fluoro-4-((1-isopropyl-2-oxo-2,3-dihydro-1H-imidazo[4,5-b]pyridine-7-yl)oxy)phenyl)-5-(trifluoromethyl)-1H-pyrazole-4-carboxamide]: 500 to 5000 nM and less than 50 nM.
The matching figures for `CC(C)n1c(=O)[nH]c2nccc(Oc3ccc(NC(=O)c4cnn(-c5c(F)cccc5F)c4C(F)(F)F)cc3F)c21` [Example 36, 1-(2,6-difluorophenyl)-N-(3-fluoro-4-((1-isopropyl-2-oxo-2,3-dihydro-1H-imidazo[4,5-b]pyridine-7-yl)oxy)phenyl)-5-(trifluoromethyl)-1H-pyrazole-4-carboxamide]: 500 to 5000 nM and less than 50 nM.
Regarding `O=C(Nc1ccc(Oc2ccnc3[nH]c(=O)n(C4CCOCC4)c23)c(F)c1)c1cnn(-c2ccccc2)c1C(F)(F)F` [Example 37, N-(3-fluoro-4-((2-oxo-1-(tetrahydro-2H-pyran-4-yl)-2,3-dihydro-1H-imidazo[4,5-b]pyridine-7-yl)oxy)phenyl)-1-phenyl-5-(trifluoromethyl)-1H-pyrazole-4-carboxamide], the IC50 at cMET is 500 to 5000 nM; against RON, 50 to 500 nM.
The matching figures for `O=C(Nc1ccc(Oc2ccnc3[nH]c(=O)n(C4CCOC4)c23)c(F)c1)c1cnn(-c2ccccc2)c1C(F)(F)F` (stereo not drawn) [Example 38, N-(3-fluoro-4-((2-oxo-1-(tetrahydrofuran-3-yl)-2,3-dihydro-1H-imidazo[4,5-b]pyridine-7-yl)oxy)phenyl)-1-phenyl-5-(trifluoromethyl)-1H-pyrazole-4-carboxamide]: 500 to 5000 nM and less than 50 nM.
The matching figures for `CN1CCC(n2c(=O)[nH]c3nccc(Oc4ccc(NC(=O)c5cnn(-c6ccccc6)c5C(F)(F)F)cc4F)c32)CC1` [Example 39, N-(3-fluoro-4-((1-(1-methylpiperidine-4-yl)-2-oxo-2,3-dihydro-1H-imidazo[4,5-b]pyridine-7-yl)oxy)phenyl)-1-phenyl-5-(trifluoromethyl)-1H-pyrazole-4-carboxamide]: more than 5000 nM and less than 50 nM.
The matching figures for `CC(C)n1c(=O)[nH]c2nccc(Oc3ccc(NC(=O)c4ccn(-c5ccccc5)n4)cc3F)c21` [Example 40, N-(3-fluoro-4-((1-isopropyl-2-oxo-2,3-dihydro-1H-imidazo[4,5-b]pyridine-7-yl)oxy)phenyl)-1-phenyl-1H-pyrazole-3-carboxamide]: 500 to 5000 nM and 500 to 5000 nM.
On to `CC(C)n1c(=O)[nH]c2nccc(Oc3ccc(NC(=O)c4cn(-c5ccccc5)nn4)cc3F)c21` [Example 41, N-(3-fluoro-4-((1-isopropyl-2-oxo-2,3-dihydro-1H-imidazo[4,5-b]pyridine-7-yl)oxy)phenyl)-1-phenyl-1H-1,2,3-triazole-4-carboxamide], for which the IC50 is more than 5000 nM against cMET and 500 to 5000 nM against RON.
As for `Cc1c(C(=O)Nc2ccc(Oc3ccnc4[nH]c(=O)n(C(C)C)c34)c(F)c2)nnn1-c1ccccc1` [Example 42, N-(3-fluoro-4-((1-isopropyl-2-oxo-2,3-dihydro-1H-imidazo[4,5-b]pyridine-7-yl)oxy)phenyl)-5-methyl-1-phenyl-1H-1,2,3-triazole-4-carboxamide], the IC50 was more than 5000 nM at cMET and 50 to 500 nM on RON.
